# Test results as given in ChEMBL document CHEMBL4038276 (Bioorg Med Chem, 2017).
# pEC50, pKi: −log10 of the molar value. The source made the active and inactive calls. The calls are words filed in the database; no cut-off is given here.
# Test system: not listed separately
# Assay: Selectivity ratio of EC50 for human kappa opioid receptor expressed in CHO cell membranes to EC50 for rat mu opioid receptor expressed in rat C6 cell membranes
# Format: cell-based
# Details: not given
row,SMILES,Ratio EC50
1,Oc1cccc([C@]23CCC[C@H]([C@H]2O)N(CCc2ccc(C(F)(F)F)cc2)CC3)c1,40

# Biological target: Mu-type opioid receptor (Rattus norvegicus) (UniProt P33535)
# Assay: Antagonist activity at rat mu opioid receptor expressed in rat C6 cell membranes assessed as inhibition of DAMGO-induced [35S]GTPgammaS binding measured after 1 hr by liquid scintillation counting method
# Format: functional
# Details: not given
# Chain of Mu-type opioid receptor (Rattus norvegicus) (P33535 whole entry): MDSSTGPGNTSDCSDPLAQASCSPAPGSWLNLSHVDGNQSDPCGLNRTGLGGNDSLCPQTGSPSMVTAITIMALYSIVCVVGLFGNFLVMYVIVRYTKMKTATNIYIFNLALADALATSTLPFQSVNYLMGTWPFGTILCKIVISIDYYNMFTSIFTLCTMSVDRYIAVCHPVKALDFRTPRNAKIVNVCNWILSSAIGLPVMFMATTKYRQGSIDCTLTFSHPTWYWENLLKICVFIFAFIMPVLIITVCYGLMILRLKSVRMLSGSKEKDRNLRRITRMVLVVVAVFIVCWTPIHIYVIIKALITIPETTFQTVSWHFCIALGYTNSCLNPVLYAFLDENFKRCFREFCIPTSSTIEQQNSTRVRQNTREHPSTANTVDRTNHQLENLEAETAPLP
row,SMILES,inhibition
1,O=[N+]([O-])c1ccc(CCN2CC[C@]3(c4cccc(O)c4)CCC[C@H]2[C@@H]3O)cc1,Active
2,Oc1cccc([C@]23CCC[C@H]([C@@H]2O)N(C[C@H]2C[C@H]2c2ccccc2)CC3)c1,Active
3,Oc1cccc([C@]23CCC[C@H]([C@@H]2O)N(C[C@@H]2C[C@H]2c2ccccc2)CC3)c1,Active
4,Oc1cccc([C@@]23CCC[C@@H]([C@@H]2O)N(CC/C=C/c2ccccc2)CC3)c1,Active

# Biological target: Mu-type opioid receptor (Rattus norvegicus) (UniProt P33535)
# Assay: Agonist activity at rat mu opioid receptor expressed in rat C6 cell membranes assessed as stimulation of [35S]GTPgammaS binding incubated for 1 hr by liquid scintillation counting method relative to DAMGO
# Format: functional
# Details: not given
row,SMILES,Activity [%]
1,Oc1cccc([C@]23CCC[C@H]([C@H]2O)N(CCc2ccccc2)CC3)c1,120
2,C=CCN1CC[C@@]2(c3cccc(O)c3)CCC[C@@H]1[C@H]2O,67
3,Oc1cccc([C@]23CCC[C@H]([C@H]2O)N(CCc2ccc(C(F)(F)F)cc2)CC3)c1,83
4,Oc1cccc([C@]23CCC[C@H]([C@@H]2O)N(C[C@@H]2C[C@@H]2c2ccccc2)CC3)c1,22
5,O=[N+]([O-])c1ccc(CCN2CC[C@@]3(c4cccc(O)c4)CCC[C@@H]2[C@H]3O)cc1,104
6,"Oc1cccc(C23CCCC(C2O)N(C/C=C/c2ccccc2)CC3)c1 (single isomer, unassigned)",20

# Biological target: T1, Kappa-type opioid receptor (Homo sapiens, UniProt P41145)
# Assay: Antagonist activity at human kappa opioid receptor expressed in CHO cell membranes assessed as inhibition of U-69,593-induced [35S]GTPgammaS binding measured after 1 hr by liquid scintillation counting method
# Format: functional
# Details: not given
# T1 sequence (P41145 whole entry): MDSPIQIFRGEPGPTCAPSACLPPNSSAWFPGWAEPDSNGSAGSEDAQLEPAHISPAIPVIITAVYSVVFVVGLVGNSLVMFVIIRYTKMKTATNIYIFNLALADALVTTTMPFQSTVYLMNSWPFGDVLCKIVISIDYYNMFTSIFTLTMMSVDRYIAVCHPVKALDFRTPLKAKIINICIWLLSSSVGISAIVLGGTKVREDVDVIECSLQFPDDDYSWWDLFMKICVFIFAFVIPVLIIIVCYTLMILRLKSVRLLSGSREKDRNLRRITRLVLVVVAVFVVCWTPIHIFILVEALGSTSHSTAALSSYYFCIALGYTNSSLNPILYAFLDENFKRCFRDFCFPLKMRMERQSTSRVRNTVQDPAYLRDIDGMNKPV
row,SMILES,inhibition
1,O=[N+]([O-])c1ccc(CCN2CC[C@@]3(c4cccc(O)c4)CCC[C@@H]2[C@H]3O)cc1,Active

# Biological target: T2, Delta-type opioid receptor (Rattus norvegicus, UniProt P33533)
# Assay: Agonist activity at rat delta opioid receptor expressed in rat C6 cell membranes assessed as stimulation of [35S]GTPgammaS binding incubated for 1 hr by liquid scintillation counting method
# Format: functional
# Details: not given
# T2 sequence (P33533 whole entry): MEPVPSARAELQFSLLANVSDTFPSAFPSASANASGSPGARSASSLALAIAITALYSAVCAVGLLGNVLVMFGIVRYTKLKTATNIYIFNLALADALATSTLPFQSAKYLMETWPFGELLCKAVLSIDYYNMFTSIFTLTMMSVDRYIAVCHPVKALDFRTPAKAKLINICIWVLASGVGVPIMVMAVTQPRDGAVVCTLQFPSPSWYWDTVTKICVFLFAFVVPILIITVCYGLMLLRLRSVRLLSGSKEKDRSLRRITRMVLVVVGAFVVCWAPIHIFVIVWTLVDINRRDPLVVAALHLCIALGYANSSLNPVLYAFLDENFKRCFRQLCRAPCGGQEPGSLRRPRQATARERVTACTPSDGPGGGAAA
row,SMILES,pEC50
1,Oc1cccc([C@]23CCC[C@H]([C@H]2O)N(CCc2ccccc2)CC3)c1,5.96
2,Oc1cccc([C@]23CCC[C@H]([C@H]2O)N(CCc2ccc(C(F)(F)F)cc2)CC3)c1,6.05
3,O=[N+]([O-])c1ccc(CCN2CC[C@@]3(c4cccc(O)c4)CCC[C@@H]2[C@H]3O)cc1,6.20
4,"Oc1cccc(C23CCCC(C2O)N(C/C=C/c2ccccc2)CC3)c1 (single isomer, unassigned)",6.60

# Biological target: T3, Mu-type opioid receptor (Rattus norvegicus, UniProt P33535)
# Details: not given
# T3 sequence (P33535 whole entry): as the sequence (P33535 whole entry) above
row,SMILES,pKi
1,O=[N+]([O-])c1ccc(CCN2CC[C@]3(c4cccc(O)c4)CCC[C@H]2[C@@H]3O)cc1,7.58
2,Oc1cccc([C@]23CCC[C@H]([C@H]2O)N(CCc2ccccc2)CC3)c1,9.58
3,C=CCN1CC[C@@]2(c3cccc(O)c3)CCC[C@@H]1[C@H]2O,7.53
4,Oc1cccc([C@]23CCC[C@H]([C@@H]2O)N(C[C@H]2C[C@H]2c2ccccc2)CC3)c1,7.29
5,Oc1cccc([C@]23CCC[C@H]([C@@H]2O)N(C[C@@H]2C[C@H]2c2ccccc2)CC3)c1,7.35
6,Oc1cccc([C@@]23CCC[C@@H]([C@@H]2O)N(CC/C=C/c2ccccc2)CC3)c1,7.60
7,Oc1cccc([C@]23CCC[C@H]([C@H]2O)N(CCc2ccc(C(F)(F)F)cc2)CC3)c1,8.70
8,Oc1cccc([C@]23CCC[C@H]([C@@H]2O)N(C[C@@H]2C[C@@H]2c2ccccc2)CC3)c1,7.94
9,O=[N+]([O-])c1ccc(CCN2CC[C@@]3(c4cccc(O)c4)CCC[C@@H]2[C@H]3O)cc1,10.14
10,"Oc1cccc(C23CCCC(C2O)N(C/C=C/c2ccccc2)CC3)c1 (single isomer, unassigned)",9.13

# Species: Rattus norvegicus
# Assay: Selectivity ratio of EC50 for rat delta opioid receptor to EC50 for rat mu opioid receptor
# Details: not given
row,SMILES,Ratio EC50
1,Oc1cccc([C@]23CCC[C@H]([C@H]2O)N(CCc2ccc(C(F)(F)F)cc2)CC3)c1,47
2,O=[N+]([O-])c1ccc(CCN2CC[C@@]3(c4cccc(O)c4)CCC[C@@H]2[C@H]3O)cc1,850
3,"Oc1cccc(C23CCCC(C2O)N(C/C=C/c2ccccc2)CC3)c1 (single isomer, unassigned)",133

# Biological target: Mu-type opioid receptor (Rattus norvegicus) (UniProt P33535)
# Details: at 100 nM
row,SMILES,inhibition [%]
1,O=[N+]([O-])c1ccc(CCN2CC[C@]3(c4cccc(O)c4)CCC[C@H]2[C@@H]3O)cc1,> 50
2,Oc1cccc([C@]23CCC[C@H]([C@H]2O)N(CCc2ccccc2)CC3)c1,> 50
3,C=CCN1CC[C@@]2(c3cccc(O)c3)CCC[C@@H]1[C@H]2O,> 50
4,Oc1cccc([C@]23CCC[C@H]([C@@H]2O)N(C[C@H]2C[C@H]2c2ccccc2)CC3)c1,> 50
5,Oc1cccc([C@]23CCC[C@H]([C@@H]2O)N(C[C@@H]2C[C@H]2c2ccccc2)CC3)c1,> 50
6,CN1CC[C@]23c4c5ccc(O)c4O[C@H]2[C@@H](O)C=C[C@H]3[C@H]1C5,> 50
7,Oc1cccc([C@@]23CCC[C@@H]([C@@H]2O)N(CC/C=C/c2ccccc2)CC3)c1,> 50
8,Oc1cccc([C@]23CCC[C@H]([C@H]2O)N(CCc2ccc(C(F)(F)F)cc2)CC3)c1,> 50
9,Oc1cccc([C@]23CCC[C@H]([C@@H]2O)N(C[C@@H]2C[C@@H]2c2ccccc2)CC3)c1,> 50
10,O=[N+]([O-])c1ccc(CCN2CC[C@@]3(c4cccc(O)c4)CCC[C@@H]2[C@H]3O)cc1,> 50
11,"Oc1cccc(C23CCCC(C2O)N(C/C=C/c2ccccc2)CC3)c1 (single isomer, unassigned)",> 50

# Biological target: Delta-type opioid receptor (Rattus norvegicus) (UniProt P33533)
# Assay: Agonist activity at rat delta opioid receptor expressed in rat C6 cell membranes assessed as stimulation of [35S]GTPgammaS binding incubated for 1 hr by liquid scintillation counting method relative to DPDPE
# Format: functional
# Details: not given
# Chain of Delta-type opioid receptor (Rattus norvegicus) (P33533 whole entry): as the sequence (P33533 whole entry) above
row,SMILES,Activity [%]
1,Oc1cccc([C@]23CCC[C@H]([C@H]2O)N(CCc2ccccc2)CC3)c1,100
2,Oc1cccc([C@]23CCC[C@H]([C@H]2O)N(CCc2ccc(C(F)(F)F)cc2)CC3)c1,50
3,O=[N+]([O-])c1ccc(CCN2CC[C@@]3(c4cccc(O)c4)CCC[C@@H]2[C@H]3O)cc1,104
4,"Oc1cccc(C23CCCC(C2O)N(C/C=C/c2ccccc2)CC3)c1 (single isomer, unassigned)",51

# Biological target: T1, Kappa-type opioid receptor
# Assay: Agonist activity at human kappa opioid receptor expressed in CHO cell membranes assessed as stimulation of [35S]GTPgammaS binding incubated for 1 hr by liquid scintillation counting method relative to U-69,593
# Format: functional
# Details: not given
row,SMILES,Activity [%]
1,Oc1cccc([C@]23CCC[C@H]([C@H]2O)N(CCc2ccc(C(F)(F)F)cc2)CC3)c1,18
2,CC[C@]12CCN(CC3CC3)[C@H](C(=O)c3ccc(O)cc31)[C@H]2C,93

# Biological target: Kappa-type opioid receptor (Rattus norvegicus) (UniProt P34975)
# Assay: Displacement of [3H]U-69,593 from kappa opioid receptor in rat brain at 100 nM after 60 mins by liquid scintillation counting method relative to control
# Details: not given
# Chain of Kappa-type opioid receptor (Rattus norvegicus) (P34975 whole entry): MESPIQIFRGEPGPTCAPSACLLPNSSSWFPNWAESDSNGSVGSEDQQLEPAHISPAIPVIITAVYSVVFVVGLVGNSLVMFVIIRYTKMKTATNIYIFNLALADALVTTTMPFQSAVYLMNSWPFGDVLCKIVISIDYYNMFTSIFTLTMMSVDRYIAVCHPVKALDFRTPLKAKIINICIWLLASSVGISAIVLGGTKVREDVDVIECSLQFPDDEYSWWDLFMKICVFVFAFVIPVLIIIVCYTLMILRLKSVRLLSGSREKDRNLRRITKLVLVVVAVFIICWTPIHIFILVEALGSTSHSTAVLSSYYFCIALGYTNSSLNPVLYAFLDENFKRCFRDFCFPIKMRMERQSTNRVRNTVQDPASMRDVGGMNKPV
row,SMILES,inhibition [%]
1,O=[N+]([O-])c1ccc(CCN2CC[C@]3(c4cccc(O)c4)CCC[C@H]2[C@@H]3O)cc1,< 50
2,C=CCN1CC[C@@]2(c3cccc(O)c3)CCC[C@@H]1[C@H]2O,< 50
3,Oc1cccc([C@]23CCC[C@H]([C@@H]2O)N(C[C@H]2C[C@H]2c2ccccc2)CC3)c1,< 50
4,Oc1cccc([C@]23CCC[C@H]([C@@H]2O)N(C[C@@H]2C[C@H]2c2ccccc2)CC3)c1,< 50
5,Oc1cccc([C@@]23CCC[C@@H]([C@@H]2O)N(CC/C=C/c2ccccc2)CC3)c1,< 50
6,Oc1cccc([C@]23CCC[C@H]([C@H]2O)N(CCc2ccc(C(F)(F)F)cc2)CC3)c1,> 50
7,Oc1cccc([C@]23CCC[C@H]([C@@H]2O)N(C[C@@H]2C[C@@H]2c2ccccc2)CC3)c1,< 50
8,O=[N+]([O-])c1ccc(CCN2CC[C@@]3(c4cccc(O)c4)CCC[C@@H]2[C@H]3O)cc1,> 50
9,"Oc1cccc(C23CCCC(C2O)N(C/C=C/c2ccccc2)CC3)c1 (single isomer, unassigned)",< 50

# Biological target: T3, Mu-type opioid receptor
# Assay: Agonist activity at rat mu opioid receptor expressed in rat C6 cell membranes assessed as stimulation of [35S]GTPgammaS binding incubated for 1 hr by liquid scintillation counting method
# Format: functional
# Details: not given
row,SMILES,pEC50
1,Oc1cccc([C@]23CCC[C@H]([C@H]2O)N(CCc2ccccc2)CC3)c1,7.66
2,C=CCN1CC[C@@]2(c3cccc(O)c3)CCC[C@@H]1[C@H]2O,5.69
3,Oc1cccc([C@]23CCC[C@H]([C@H]2O)N(CCc2ccc(C(F)(F)F)cc2)CC3)c1,7.72
4,Oc1cccc([C@]23CCC[C@H]([C@@H]2O)N(C[C@@H]2C[C@@H]2c2ccccc2)CC3)c1,6.10
5,O=[N+]([O-])c1ccc(CCN2CC[C@@]3(c4cccc(O)c4)CCC[C@@H]2[C@H]3O)cc1,9.13
6,"Oc1cccc(C23CCCC(C2O)N(C/C=C/c2ccccc2)CC3)c1 (single isomer, unassigned)",8.72

# Biological target: Delta-type opioid receptor (Rattus norvegicus) (UniProt P33533)
# Assay: Displacement of [3H]DADLE from delta opioid receptor in rat brain at 100 nM after 60 mins by liquid scintillation counting method relative to control
# Details: not given
row,SMILES,inhibition [%]
1,O=[N+]([O-])c1ccc(CCN2CC[C@]3(c4cccc(O)c4)CCC[C@H]2[C@@H]3O)cc1,< 50
2,Oc1cccc([C@]23CCC[C@H]([C@H]2O)N(CCc2ccccc2)CC3)c1,> 50
3,C=CCN1C[C@H](C)N([C@H](c2ccc(C(=O)N(CC)CC)cc2)c2cccc(OC)c2)C[C@H]1C,> 50
4,C=CCN1CC[C@@]2(c3cccc(O)c3)CCC[C@@H]1[C@H]2O,< 50
5,Oc1cccc([C@]23CCC[C@H]([C@@H]2O)N(C[C@H]2C[C@H]2c2ccccc2)CC3)c1,< 50
6,Oc1cccc([C@]23CCC[C@H]([C@@H]2O)N(C[C@@H]2C[C@H]2c2ccccc2)CC3)c1,< 50
7,Oc1cccc([C@@]23CCC[C@@H]([C@@H]2O)N(CC/C=C/c2ccccc2)CC3)c1,< 50
8,Oc1cccc([C@]23CCC[C@H]([C@H]2O)N(CCc2ccc(C(F)(F)F)cc2)CC3)c1,> 50
9,Oc1cccc([C@]23CCC[C@H]([C@@H]2O)N(C[C@@H]2C[C@@H]2c2ccccc2)CC3)c1,< 50
10,O=[N+]([O-])c1ccc(CCN2CC[C@@]3(c4cccc(O)c4)CCC[C@@H]2[C@H]3O)cc1,> 50
11,"Oc1cccc(C23CCCC(C2O)N(C/C=C/c2ccccc2)CC3)c1 (single isomer, unassigned)",> 50

# Biological target: T2, Delta-type opioid receptor
# Assay: Displacement of [3H]DADLE from delta opioid receptor in rat brain after 60 mins by liquid scintillation counting method
# Details: not given
row,SMILES,pKi
1,Oc1cccc([C@]23CCC[C@H]([C@H]2O)N(CCc2ccccc2)CC3)c1,7.72
2,Oc1cccc([C@]23CCC[C@H]([C@H]2O)N(CCc2ccc(C(F)(F)F)cc2)CC3)c1,6.79
3,O=[N+]([O-])c1ccc(CCN2CC[C@@]3(c4cccc(O)c4)CCC[C@@H]2[C@H]3O)cc1,8.01
4,"Oc1cccc(C23CCCC(C2O)N(C/C=C/c2ccccc2)CC3)c1 (single isomer, unassigned)",7.75

# Biological target: Mu-type opioid receptor (Rattus norvegicus) (UniProt P33535)
# Assay: Antagonist activity at rat brain mu opioid receptor expressed in rat C6 cell membranes assessed as inhibition of DAMGO-induced [35S]GTPgammaS binding at 1 uM after 1 hr by liquid scintillation counting method
# Format: functional
# Details: not given
row,SMILES,Ke [nM]
1,O=[N+]([O-])c1ccc(CCN2CC[C@]3(c4cccc(O)c4)CCC[C@H]2[C@@H]3O)cc1,31.5

# Biological target: T1, Kappa-type opioid receptor
# Assay: Agonist activity at human kappa opioid receptor expressed in CHO cell membranes assessed as stimulation of [35S]GTPgammaS binding incubated for 1 hr by liquid scintillation counting method
# Format: functional
# Details: not given
row,SMILES,pEC50
1,Oc1cccc([C@]23CCC[C@H]([C@H]2O)N(CCc2ccc(C(F)(F)F)cc2)CC3)c1,6.12

# Biological target: Kappa-type opioid receptor (Rattus norvegicus, UniProt P34975)
# Assay: Displacement of [3H]U-69,593 from kappa opioid receptor in rat brain after 60 mins by liquid scintillation counting method
# Details: not given
# Chain of Kappa-type opioid receptor (Rattus norvegicus, UniProt P34975) (P34975 whole entry): as above
row,SMILES,pKi
1,Oc1cccc([C@]23CCC[C@H]([C@H]2O)N(CCc2ccc(C(F)(F)F)cc2)CC3)c1,7.52
2,O=[N+]([O-])c1ccc(CCN2CC[C@@]3(c4cccc(O)c4)CCC[C@@H]2[C@H]3O)cc1,7.26
